Results on 16 compounds are retold here after patent US20100160335A1, “PYRIDAZINONE DERIVATIVE AND PDE INHIBITOR CONTAINING THE SAME AS ACTIVE INGREDIENT” (KYORIN PHARMACEUTICAL CO., LTD., priority 2007, published 2010).

In assay [1] the target is T1, PDE4Bcat (Homo sapiens, UniProt Q07343).
T1 construct: made in house; host or cells: Sf9 insect cells (baculovirus, Bac-to-Bac / Gateway)
Nature of the assay: Phosphodiesterase inhibitory activity, PDE4 ([3H]cAMP, recombinant enzyme). It counts as biochemical. The conditions noted are these: 30° C., 20 minutes, read-out: IC50(μmol/L) PDE4.

The subject of assay [2] is histamine-induced bronchoconstriction in guinea pigs. The experiment in a line: Histamine-induced bronchoconstriction reaction in guinea pigs. It counts as in vivo. The conditions noted are these: guinea pig, measured 30 seconds after administration. The procedure: Guinea pigs were anesthetized with pentobarbital (30 mg/kg, i.p.). A cannula for intravenous administration was inserted into the left external jugular vein, a cannula for collecting blood and measuring blood pressure was inserted into the right internal carotid artery, and a tracheal cannula was inserted into the trachea. The guinea pigs were maintained on artificial respiration under the conditions of 60 times/min and 10 mL/kg/stroke. The airflow from the side branch of the tracheal cannula was measured by a bronchospasm transducer (Ugo-Basile) and recorded on a computer via Power Lab (ADInstruments Japan). The guinea pigs were immobilized with gallamine (10 mg/kg, i.v.), and histamine (12.5 μg/kg, i.v.) was administered at 10-minute intervals. After the histamine-induced bronchoconstriction became stable, the compound (0.3 mg/kg, i.v.) was administered. The histamine-induced bronchoconstriction reaction was measured 30 seconds after the compound administration to examine the bronchoconstriction inhibitory activity of the compound. The bronchoconstriction was recorded as the airflow value, and the results were represented by the ratio of the maximum value of the histamine- induced airflow 30 seconds after the administration to the maximum value of the airflow before the administration. Also, the test compounds dissolved in DMSO were used. Further, the indications were as follows: inhibition rate≧90% (+++), 90%>inhibition rate≧80% (++), and 80%>inhibition rate≧70% (+). [ ] means the results in the case of 0.1 mg/kg, i.v.

Assay [3] has as its target T2, PDE3A catalytic domain (PDE3Acat) (Homo sapiens, UniProt Q14432).
T2 construct: made in house; host or cells: Sf9 insect cells (baculovirus, Bac-to-Bac / Gateway)
Nature of the assay: Phosphodiesterase inhibitory activity, PDE3 ([3H]cAMP, recombinant enzyme). It counts as biochemical. To be noted: 30° C., 20 minutes, read-out: IC50(μmol/L) PDE3.

Where [4] appears, read: Cavia porcellus, iv, 0.5 min, compound 0.3 mg/kg, i.v., read-out: Inhibition rate (histamine-induced bronchoconstriction).

Some results are limits rather than exact numbers.

T1 sequence (Q07343 330-659 limits assumed): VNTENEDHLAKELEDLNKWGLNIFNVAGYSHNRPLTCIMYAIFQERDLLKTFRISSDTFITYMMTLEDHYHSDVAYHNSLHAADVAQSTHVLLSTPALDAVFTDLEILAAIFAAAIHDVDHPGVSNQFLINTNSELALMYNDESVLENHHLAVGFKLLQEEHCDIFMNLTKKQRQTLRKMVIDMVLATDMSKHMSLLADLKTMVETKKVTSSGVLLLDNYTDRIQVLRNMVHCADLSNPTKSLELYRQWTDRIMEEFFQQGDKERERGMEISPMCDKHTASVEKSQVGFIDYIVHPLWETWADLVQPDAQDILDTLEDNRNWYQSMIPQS
T2 sequence (Q14432 674-1093 limits assumed): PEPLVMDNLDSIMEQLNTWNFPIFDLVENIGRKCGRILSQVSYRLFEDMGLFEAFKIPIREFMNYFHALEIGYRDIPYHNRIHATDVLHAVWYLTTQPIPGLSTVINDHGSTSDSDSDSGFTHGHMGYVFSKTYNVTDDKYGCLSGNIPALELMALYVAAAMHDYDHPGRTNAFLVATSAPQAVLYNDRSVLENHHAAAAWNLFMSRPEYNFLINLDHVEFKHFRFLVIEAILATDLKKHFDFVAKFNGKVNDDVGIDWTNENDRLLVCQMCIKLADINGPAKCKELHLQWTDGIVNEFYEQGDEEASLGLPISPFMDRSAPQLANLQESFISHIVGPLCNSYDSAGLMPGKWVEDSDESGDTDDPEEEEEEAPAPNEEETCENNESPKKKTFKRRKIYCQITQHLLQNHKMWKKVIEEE

On to `CCc1ccc2c(C3=NN(CCCCOc4ccc(C5=NNC(=O)CC5C)cc4)C(=O)CC3C)ccc(OC)c2n1` (single isomer, unassigned) [Example 342, 6-(2-Ethyl-8-methoxyquinolin-5-yl)-5-methyl-2-[4-[4-(4-methyl-6-oxo-1,4,5,6-tetrahydropyridazin-3-yl)phenoxy]butyl]-4,5-dihydro-2H-pyridazin-3-one], for which the IC50 in assay [1] was 0.1 to 1 µmol/L; in assay [3], below 0.1 µmol/L. Moreover, the “Inhibition rate (histamine-induced bronchoconstriction)” value in assay [2] (compound 0.3 mg/kg, i.v.) was “+++ (inhibition rate≧90% (+++))”.

`COc1ccc(C2=NN(CCCCOc3ccc(C4=NNC(=O)CC4C)cc3)C(=O)CC2C)c2ccc(C)nc12` (stereo not drawn) [Example 267, 6-(8-Methoxy-2-methylquinolin-5-yl)-5-methyl-2-[4-[4-(4-methyl-6-oxo-1,4,5,6-tetrahydropyridazin-3-yl)phenoxy]butyl]-4,5-dihydro-2H-pyridazin-3-one]: the IC50 in assay [1] was below 0.1 µmol/L; in assay [3], 0.1 to 1 µmol/L. Also, in assay [2] (setting [4]), the inhibition in vivo at 0.3 mg/kg was at least 90%.

Take `COc1ccc(C2=NN(CCCCOc3ccc(C4=NNC(=O)CC4C)cc3)C(=O)CC2C)c2ccc(C(C)C)nc12` (stereo not drawn) [Example 269, 6-(8-Methoxy-2-isopropylquinolin-5-yl)-5-methyl-2-[4-[4-(4-methyl-6-oxo-1,4,5,6-tetrahydropyridazin-3-yl)phenoxy]butyl]-4,5-dihydro-2H-pyridazin-3-one]: the IC50 in assay [1] is 0.1 to 1 µmol/L; in assay [3], below 0.1 µmol/L. The inhibition in vivo at 0.1 mg/kg in assay [2] (Cavia porcellus, iv, 0.5 min, compound 0.1 mg/kg, i.v. (values in [ ]), read-out: Inhibition rate (histamine-induced bronchoconstriction)) lay within 80 to 90%.

On to `COc1ccc(-c2ccc(=O)n(CCCCOc3ccc(C4=NNC(=O)CC4)cc3F)n2)c2ccc(C)nc12` [Example 272, 2-[4-[2-Fluoro-4-(6-oxo-1,4,5,6-tetrahydropyridazin-3-yl)phenoxy]butyl}-6-(8-methoxy-2-methylquinolin-5-yl)-2H-pyridazin-3-one], for which the results for the IC50 in assay [1] and in assay [3] were below 0.1 µmol/L and 0.1 to 1 µmol/L, respectively. Besides, in assay [2] (setting [4]), the inhibition in vivo at 0.3 mg/kg was in the range of 70 to 80%.

On to `CCc1ccc2c(-c3ccc(=O)n(CCCOc4ccc(C5=NNC(=O)CC5C)c(F)c4F)n3)ccc(OC)c2n1` (stereo not drawn) [Example 325, 6-(2-Ethyl-8-methoxyquinolin-5-yl)-2-[3-[2,3-difluoro-4-(4-methyl-6-oxo-1,4,5,6-tetrahydropyridazin-3-yl)phenoxy]propyl]-2H-pyridazin-3-one], for which the IC50 in assay [1] and in assay [3] was 0.1 to 1 µmol/L in each case.

Turning to `CCc1ccc2c(-c3ccc(=O)n(CCCOc4ccc(C5=NNC(=O)CC5)c(F)c4F)n3)ccc(OC)c2n1` [Example 326, 6-(2-Ethyl-8-methoxyquinolin-5-yl)-2-[3-[2,3-difluoro-4-(6-oxo-1,4,5,6-tetrahydropyridazin-3-yl)phenoxy]propyl]-2H-pyridazin-3-one], the IC50 in assay [1] and in assay [3] was 1 to 10 µmol/L throughout.

Take `CCc1ccc2c(-c3ccc(=O)n(CCCOc4ccc(C5=NNC(=O)C5(C)C)c(F)c4F)n3)ccc(OC)c2n1` [Example 327, 6-(2-Ethyl-8-methoxyquinolin-5-yl)-2-[3-[2,3-difluoro-4-(4,4-dimethyl-5-oxo-4,5-dihydro-1H-pyrazol-3-yl)phenoxy]propyl]-2H-pyridazin-3-one]: the results for the IC50 in assay [1] and in assay [3] were 0.1 to 1 µmol/L and 1 to 10 µmol/L, respectively.

In the case of `COc1ccc(-c2ccc(=O)n(CCCCOc3ccc(C4=NNC(=O)CC4C)c(F)c3F)n2)c2cc(C(F)(F)F)sc12` (stereo not drawn) [Example 330, 2-[4-[2,3-Difluoro-4-(4-methyl-6-oxo-1,4,5,6-tetrahydropyridazin-3-yl)phenoxy]butyl]-6-(7-methoxy-2-trifluoromethylbenzo[b]thiophen-4-yl)-2H-pyridazin-3-one], the IC50 in assay [1] is 1 to 10 µmol/L; in assay [3] it was below 0.1 µmol/L.

With `COc1ccc(-c2ccc(=O)n(CCCCOc3ccc(C4=NNC(=O)CC4)c(F)c3F)n2)c2cc(C(F)(F)F)sc12` [Example 331, 2-[4-[2,3-Difluoro-4-(6-oxo-1,4,5,6-tetrahydropyridazin-3-yl)phenoxy]butyl]-6-(7-methoxy-2-trifluoromethylbenzo[b]thiophen-4-yl)-2H-pyridazin-3-one], the IC50 was 1 to 10 µmol/L in assay [1] and below 0.1 µmol/L in assay [3].

For the compound `COc1ccc(-c2ccc(=O)n(CCCCOc3ccc(C4=NNC(=O)C4(C)C)c(F)c3F)n2)c2cc(C(F)(F)F)sc12` [Example 332, 2-[4-[2,3-Difluoro-4-(4,4-dimethyl-5-oxo-4,5-dihydro-1H-pyrazol-3-yl)phenoxy]butyl]-6-(7-methoxy-2-trifluoromethylbenzo[b]thiophen-4-yl)-2H-pyridazin-3-one], the results for the IC50 in assay [1] and in assay [3] were 1 to 10 µmol/L and 0.1 to 1 µmol/L, respectively.

For the compound `CCc1nc2c(OC)ccc(-c3ccc(=O)n(CCCCOc4ccc(C5=NNC(=O)CC5)c(F)c4F)n3)c2o1` [Example 333, 6-(2-Ethyl-4-methoxybenzooxazol-7-yl)-2-[4-[2,3-difluoro-4-(6-oxo-1,4,5,6-tetrahydropyridazin-3-yl)phenoxy]butyl]-2H-pyridazin-3-one], the results for the IC50 in assay [1] and in assay [3] were 0.1 to 1 µmol/L and below 0.1 µmol/L, respectively.

With `CCc1nc2c(OC)ccc(-c3ccc(=O)n(CCCCOc4ccc(C5=NNC(=O)CC5C)c(F)c4F)n3)c2o1` (stereo not drawn) [Example 334, 6-(2-Ethyl-4-methoxybenzooxazol-7-yl)-2-[4-[2,3-difluoro-4-(4-methyl-6-oxo-1,4,5,6-tetrahydropyridazin-3-yl)phenoxy]butyl]-2H-pyridazin-3-one], the IC50 in assay [1] is 0.1 to 1 µmol/L; in assay [3] it was below 0.1 µmol/L.

For the compound `CCc1nc2c(OC)ccc(-c3ccc(=O)n(CCCCOc4ccc(C5=NNC(=O)C5(C)C)c(F)c4F)n3)c2o1` [Example 335, 6-(2-Ethyl-4-methoxybenzooxazol-7-yl)-2-[4-[2,3-difluoro-4-(4,4-dimethyl-5-oxo-4,5-dihydro-1H-pyrazol-3-yl)phenoxy]butyl]-2H-pyridazin-3-one], the IC50 in assay [1] and in assay [3] was 0.1 to 1 µmol/L in each case.

For `COc1ccc(-c2ccc(=O)n(CCCCOc3ccc(C4=NNC(=O)CC4C)c(F)c3F)n2)n2cc(C(F)(F)F)nc12` (stereo not drawn) [Example 336, 2-[4-[2,3-Difluoro-4-(4-methyl-6-oxo-1,4,5,6-tetrahydropyridazin-3-yl)phenoxy]butyl]-6-(8-methoxy-2-trifluoromethylimidazo[1,2-a]pyridin-5-yl)-2H-pyridazin-3-one], the IC50 is 0.1 to 1 µmol/L in assay [1] and below 0.1 µmol/L in assay [3].

As to `COc1ccc(-c2ccc(=O)n(CCCCOc3ccc(C4=NNC(=O)CC4)c(F)c3F)n2)n2cc(C(F)(F)F)nc12` [Example 337, 2-[4-[2,3-Difluoro-4-(6-oxo-1,4,5,6-tetrahydropyridazin-3-yl)phenoxy]butyl]-6-(8-methoxy-2-trifluoromethylimidazo[1,2-a]pyridin-5-yl)-2H-pyridazin-3-one], the IC50 in assay [1] and in assay [3] was 0.1 to 1 µmol/L in each case.

Regarding `COc1ccc(-c2ccc(=O)n(CCCCOc3ccc(C4=NNC(=O)C4(C)C)c(F)c3F)n2)n2cc(C(F)(F)F)nc12` [Example 338, 2-[4-[2,3-Difluoro-4-(4,4-dimethyl-5-oxo-4,5-dihydro-1H-pyrazol-3-yl)phenoxy]butyl]-6-(8-methoxy-2-trifluoromethylimidazo[1,2-a]pyridin-5-yl)-2H-pyridazin-3-one], the IC50 in assay [1] and in assay [3] was 0.1 to 1 µmol/L in each case.
